Consider 39 molecules from PubChem BioAssay AID1552 (Sanford-Burnham Center for Chemical Genomics, 2009).

Activity calls are given as the source filed them. How the calls were made is not given here. Some results are limits rather than exact numbers.

This experiment has as its target Ubiquitin-conjugating enzyme E2 N (Homo sapiens) (UniProt P61088). Nature of the experiment: UBE2N binders by NMR, biophysical, purified protein (AID 1552). The settings on record: NMR binding to purified UBE2N.

Ubiquitin-conjugating enzyme E2 N (Homo sapiens), sequence (P61088 whole entry, looked up): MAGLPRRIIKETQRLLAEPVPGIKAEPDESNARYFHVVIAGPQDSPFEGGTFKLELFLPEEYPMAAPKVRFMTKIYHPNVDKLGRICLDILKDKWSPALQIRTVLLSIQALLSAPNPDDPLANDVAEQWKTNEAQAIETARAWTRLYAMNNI

A word on the Kd: it is the concentration at which binding is half-saturated. In the case of `COc1cc(OC)c2ccc(=O)oc2c1`, the Kd was > 4 mM (inactive).
Take `CN(C)C(=O)Nc1ccc2c(c1)nnn2C`: the Kd is > 4 mM (inactive).
In the case of `CCOC(=O)CNC(=O)CSc1nnc(C)c(=O)[nH]1`, the Kd was > 4 mM (inactive).
In the case of `NC(=O)CN1CCC(c2nc3ccccc3[nH]2)CC1` it was > 4 mM (inactive).
The figure for `CNS(=O)(=O)c1cccs1` is > 4 mM (inactive); for `C/C=C(\C)C(=O)O[C@H]1C[C@@H](OC(C)=O)[C@@]2(C(=O)OC)CO[C@@H]3C2[C@]12CO[C@](O)(C(=O)OC)[C@H]2[C@](C)(C12O[C@@]1(C)[C@H]1C[C@@H]2OC2OC=C[C@@]21O)[C@@H]3O` (some centres undefined) it is > 4 mM (inactive).
In the case of `CN1C(=O)Cc2cc(S(N)(=O)=O)ccc21` it was > 4 mM (inactive); in that of `O=C(c1cccc(-n2cnnn2)c1)N1CCOCC1`, > 4 mM (inactive); in that of `C=C(C)C1CC=C(CO)CC1` (centres undefined), > 4 mM (inactive).
Turning to `COc1cccc(S(=O)(=O)Nc2cccnc2)c1`, the Kd is > 4 mM (inactive).
In the case of `COc1ccc(C2(C)NC(=O)NC2=O)cc1` (centres undefined) it was > 4 mM (inactive); in that of `CC(=O)NC(c1ccccc1)c1cccnc1` (centres undefined), > 4 mM (inactive).
The figure for `O=C1CCCN1c1ccc(S(=O)O)cc1` is > 4 mM (inactive); for `COc1cc2c(cc1OC)C1(O)C(=O)c3ccc(O)c(C(=O)O)c3OC1CO2` (centres undefined) it is > 4 mM (inactive); for `CN(C)C(=O)C12CCC(C)(C(=O)O1)C2(C)C` (centres undefined) it is > 4 mM (inactive).
The figure for `Cn1cc(Cl)c(C(=O)NC2CCCC2)n1` is > 4 mM (inactive); for `Cc1cc(C)c(-c2cc(C(F)(F)F)no2)c(=O)[nH]1` it is > 4 mM (inactive).
Turning to `Cc1ccccc1NC(=O)c1ccccc1`, the Kd was > 4 mM (inactive).
The figure for `Cc1ccc(CN2CCN(C(=O)C3CCC3)CC2)cc1` is > 4 mM (inactive).
The figure for `O=C1C2C3C=CC(C3)C2C(=O)N1CCCO` (centres undefined) is > 4 mM (inactive); for `Cc1ccccc1NC(=O)CC1SC(N)=NC1=O` (centres undefined) it is > 4 mM (inactive); for `O=C(c1ccc(F)cc1)N1CCN(c2ncccn2)CC1` it is > 4 mM (inactive).
The figure for `O=C(O)Cc1c[nH]c2ccccc12` is > 4 mM (inactive).
Turning to `O=c1c(-c2ccc(O)cc2)coc2cc(O)ccc12`, the Kd was > 4 mM (inactive).
The figure for `O=c1c2ccccc2nc2n1CCS2` is > 4 mM (inactive).
The figure for `COc1cc2c(cc1OC)[C@@H]1C(=O)c3ccc(OC)c(CC=C(C)C)c3O[C@@H]1CO2` is > 4 mM (inactive); for `Cn1cnc2nc3n(c2c1=O)CCC3` it is > 4 mM (inactive).
The figure for `Cn1nc(C(=O)NC2CCCCC2)c2ccccc2c1=O` is > 4 mM (inactive); for `CN1C(CC(=O)c2ccccc2)CCCC1CC(O)c1ccccc1` (centres undefined) it is > 4 mM (inactive); for `C[C@@H]1CC[C@@]23CCC4(C)[C@@](C=CC5[C@@]6(C)CCC(=O)C(C)(C)C6CC[C@]54C)(OC2=O)C3[C@H]1C` (some centres undefined) it is > 4 mM (inactive).
In the case of `Nc1cccc2nonc12`, the Kd is > 4 mM (inactive).
The figure for `O=[N+]([O-])c1c[n+]([O-])n(-c2ccccc2)n1` is > 4 mM (inactive).
The figure for `O=C1c2ccncc2C(=O)N1CNc1ccccn1` is > 4 mM (inactive); for `O=C(CC1NC(=O)NC1=O)Nc1ccccc1` (centres undefined) it is > 4 mM (inactive).
In the case of `c1cc(C(N2CCOCC2)N2CCOCC2)ccn1` it was > 4 mM (inactive); in that of `COC(=O)/C(=C1\OC(=O)C(c2ccccc2)C1=O)c1ccccc1` (centres undefined), > 4 mM (inactive); in that of `O=C1C2C3C=CC(C3)C2C(=O)N1c1ccccn1` (centres undefined), > 4 mM (inactive).
In the case of `NC(=O)c1ccccc1NC(=O)C1CCCO1` (centres undefined), the Kd is > 4 mM (inactive).
In the case of `COc1ccc2c(c1)OC/C(=C/c1ccc(O)c(O)c1)C2=O` it was > 4 mM (inactive).
